This is an account of results in US11918581B2, “Combination therapy comprising JAK pathway inhibitor and rock inhibitor” (Incyte Corporation, priority 2021, dated 2024).

“Also recorded” adds a separate entry of the source. Where two headings read alike, the source gives them in different places. Where only a bound is given, the exact number is not on record here.

Experiment [1] addresses human JAK2 (a.a. 828-1132) (Homo sapiens (Human), UniProt O60674). The experiment is described as follows: In vitro JAK kinase assay (HTRF), JAK2. The format is biochemical. Particulars: JAK2/JAK1 IC50 ratio, 1 mM ATP.
Description: (§1) The catalytic activity of JAK1, JAK2, or JAK3 was assayed by measuring the phosphorylation of a biotinylated peptide. The phosphorylated peptide was detected by homogenous time resolved fluorescence (HTRF). […] Reactions are carried out at room temperature for 1 hour and then stopped with 20 μL 45 mM EDTA, 300 nM SA-APC, 6 nM Eu-Py20 in assay buffer (Perkin Elmer, Boston, MA). Binding to the Europium labeled antibody takes place for 40 minutes and HTRF signal was measured on a Fusion plate reader (Perkin Elmer, Boston, MA).
The target in experiment [2] is human JAK1 (a.a. 837-1142) (Homo sapiens, UniProt P23458). Briefly: In vitro JAK kinase assay (HTRF), JAK1. Particulars: 1 mM ATP. The format is biochemical.
Description: as §1
Experiment [3] concerns acute GVHD (aGVHD). Particulars: patients, cited from earlier work.
Experiment [4] concerns GVHD. Conditions: 60 mg/kg per day or 120 mg/kg per day; prophylactic and therapeutic dosing; cited from earlier work.
For experiment [5], the system named is sclerodermatous chronic GVHD. The experiment is described as follows: Example 1: murine model of sclerodermatous chronic GVHD, itacitinib and belumosudil. The format is in vivo, C57Bl/6 mice. Conditions: PO d21-56; itacitinib 120 mg/kg BID, belumosudil 150 mg/kg QD; FIG. 1. As to the method:
The effects of therapeutic dosing of a selective JAK1 inhibitor (itacitinib), a ROCK2 inhibitor (belumosudil), and a combination the selective JAK1 inhibitor and ROCK2 inhibitor (itacitinib+belumosudil) combination were tested in a murine model of sclerodermatous chronic GVHD. Sclerodermatous chronic GVHD was induced in C57Bl/6 mice using a single acute dose of 8.5 Gy of total body irradiation on Day −1. On Day 0, recipient mice were given an intravenous injection of a combination of splenocytes and bone marrow cells from donor LP/J mice. Starting at day 21, animals were dosed with vehicle, itacitinib, belumosudil, or the combination of both itacitinib and belumosudil (P.O., B.I.D, see Table 2). All animals were monitored on a daily basis to record weight change, survival and GVHD score (see Table 3). On days 33, 36, 39, 42 and 45 all animals were photographed under isoflurane anesthesia to assess disease severity. [table] [table]

Experiment [6] has as its system sclerodermatous chronic GVHD. Briefly: Example 2: murine model of sclerodermatous chronic GVHD, ruxolitinib and belumosudil. In kind it is in vivo, C57Bl/6 mice. Conditions: PO d21-56; ruxolitinib 60 mg/kg BID, belumosudil 150 mg/kg QD; FIG. 3. As to the method: The effects of therapeutic dosing of a JAK1/2 inhibitor (ruxolitinib), a ROCK2 inhibitor (belumosudil), and a combination of the JAK1/2 inhibitor and ROCK2 inhibitor (ruxolitinib+belumosudil) combination were tested in a murine model of sclerodermatous chronic GVHD. Sclerodermatous chronic GVHD was induced in C57Bl/6 mice using a single acute dose of 8.5 Gy of total body irradiation on Day −1. On Day 0, recipient mice were given an intravenous injection of a combination of splenocytes and bone marrow cells from donor LP/J mice. Starting at day 21, animals were dosed with vehicle, ruxolitinib, belumosudil, or the combination of both ruxolitinib and belumosudil (P.O., B.I.D, see Table 4). All animals were monitored on a daily basis to record weight change, survival and GVHD score (see Table 5). On days 33, 36, 39, 42 and 45 all animals were photographed under isoflurane anesthesia to assess disease severity. [table] [table]

For experiment [7], the system named is lung cGVHD. Particulars: cited from earlier work.
The subject of experiment [8] is chronic GVHD (cGVHD). Conditions: patients; cited from earlier work.

human JAK2 (a.a. 828-1132), sequence (O60674 828-1132): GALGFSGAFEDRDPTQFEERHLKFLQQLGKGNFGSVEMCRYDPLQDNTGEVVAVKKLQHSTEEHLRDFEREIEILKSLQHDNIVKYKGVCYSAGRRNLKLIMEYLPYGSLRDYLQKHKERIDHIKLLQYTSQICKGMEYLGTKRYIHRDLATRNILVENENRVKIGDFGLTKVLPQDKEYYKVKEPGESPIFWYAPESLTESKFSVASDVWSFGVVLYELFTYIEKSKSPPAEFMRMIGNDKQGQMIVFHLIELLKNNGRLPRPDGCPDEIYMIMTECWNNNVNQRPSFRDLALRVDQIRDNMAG

Take `N#CCC1(n2cc(-c3ncnc4[nH]ccc34)cn2)CN(C2CCN(C(=O)c3ccnc(C(F)(F)F)c3F)CC2)C1` [Compound 1, {1-{1-[3-Fluoro-2-(trifluoromethyl)isonico-tinoyl]piperidin-4-yl}-3-[4-(7H-pyrrolo[2,3-d]pyrimidin-4-yl)-1H-pyrazol-1-yl]azetidin-3-yl}acetonitrile]: the JAK2/JAK1 in experiment [1] is given as more than 10. For the same compound, in experiment [2], the half-maximal inhibitory concentration (IC50) is less than 10 nM. Moreover, the “clinical efficacy in acute GVHD” value in experiment [3] (listed as itacitinib) was “clinical efficacy; also recorded: significant clinical activity”. Moreover, the GVHD score result in experiment [4] is given as “improvement in the GVHD score”. In experiment [5], the “GVHD score compared to vehicle-treated animals” value is “reduction in GVHD scores”.
Take `CC(C)NC(=O)COc1cccc(-c2nc(Nc3ccc4[nH]ncc4c3)c3ccccc3n2)c1` [belumosudil, 2-(3-(4-((1H-indazol-5-yl)amino)quinazolin-2-yl)phenoxy)-N-isopropylacetamide, reference compound]: the “GVHD score compared to vehicle-treated animals” value in experiment [6] is reported as “no benefit”; in experiment [5], “reduction in GVHD scores”.
For the compound `N#CC[C@H](C1CCCC1)n1cc(-c2ncnc3[nH]ccc23)cn1` [ruxolitinib, (R)-3-(4-(7H-pyrrolo[2,3-d]pyrimidin-4-yl)-1H-pyrazol-1-yl)-3-cyclopentylpropanenitrile], the “increase in FEV1” value in experiment [7] (1 patient) is reported as 9%. Further, the responses in experiment [7] (5 pediatric patients (4 evaluable) with lung cGVHD) was 2. Also, the “patients able to wean steroids completely” value in experiment [7] (5 pediatric patients) is recorded as “Four out of five”. The “decrease of the steroid requirement” value in experiment [7] (final patient) was more than 50%. Moreover, the “clinical efficacy in chronic GVHD” value in experiment [8] is “clinical efficacy”. The “GVHD score compared to vehicle-treated animals” value in experiment [6] is “numerical reduction in GVHD scores”. The “clinical efficacy in acute GVHD” value in experiment [3] is “clinical efficacy”.
